pEC50: −log10 of the molar value. Like-named read-outs stand apart in the source and are kept apart here.
Experiments:
HeLa MKYP cells [1] = assay: Cell death measured by DAPI staining, with 1 μM FCCP/oligomycin or no toxin (no FO); assay type: cell-based
Description: EP-0035985, EP-0037821, EP-0038098, and EP-0038099 in the presence of 1 μM FCCP/oligomycin or with no toxin (no FO) for 6 hrs. H2O2 treatment was performed as a control for cell death as measured by DAPI staining.
EP-0035985, EP-0038461, EP-0038463, and EP-0038503 in the presence of 1 μM FCCP/oligomycin or with no toxin (no FO) for 6.5 hrs. H2O2 treatment was performed as a control for cell death as measured by DAPI staining.
EP-0035985, EP-0038504, EP-0038508, and EP-0038521 in the presence of 1 μM FCCP/oligomycin or with no toxin (no FO) for 6.5 hrs. H2O2 treatment was performed as a control for cell death as measured by DAPI staining.
EP-0035985, EP-0038461, EP-0038463, EP-0038503, EP-0038504, EP-0038508, and EP-0038521 in the presence of 1 μM FCCP/oligomycin or with no toxin (no FO) for 6.5 hrs. H2O2 treatment was performed as a control for cell death as measured by DAPI staining.

HeLa MKYP cells [2] = assay: Human mitophagy assay (HeLa mKeima assay, FACS); assay type: cell-based
Description: Briefly, HeLa MKYP cells were plated at 10,000 cells/well in 96 well plates along with compounds at various concentrations. Following 16 hrs of incubation, cells were treated with 1 uM FCCP/oligomycin for 6 hours, then analyzed via FACS for the presence of mitochondria in lysosomes (as determined by an emissions spectrum shift from the pH-sensitive mtKeima tag).
Briefly, HeLa cells expressing a mitophagy indicator (mtKeima) protein were treated with […] of FCCP and Oligomycin followed by the specified dose of compound, then analyzed by FACS to quantify the percentage of cells undergoing mitophagy.

[3] = Homo sapiens, HeLa, read-out: Mitophagy induction EC50
[4] = read-out: Mitophagy induction EC50

| SMILES | Highest safe dose (cytotoxicity; no FO; safe means DAPI+ <20%) (HeLa MKYP cells [1]; no FO) [µM] | Max % death with 1 μM FO (HeLa MKYP cells [1]) [%] | pEC50 (HeLa MKYP cells [2]; [3]) | pEC50 (HeLa MKYP cells [2]; [4]) | Max cell death at 25 μM compound, 1 uM FO (%) (HeLa MKYP cells [1]; 25 μM compound, 1 uM FO) | Cell death at 25 μM (no FO) (%) (HeLa MKYP cells [1]; 25 μM compound, no FO) | pEC50 (HeLa MKYP cells [2]; Homo sapiens, HeLa, HeLa mKeima assay, read-out: Mitophagy EC50 (HeLa mKeima assay)) |
| --- | --- | --- | --- | --- | --- | --- | --- |
| c1ccc2c(c1)CC[C@H](N1C[C@H]3COC[C@H]3C1)[C@H]2Nc1ncnc2[nH]c(C3CC3)cc12 (single isomer, unassigned) [EP-0040248] | 25.0 | 3.7 | < 4.60 |  |  |  |  |
| CO[C@@H]1CCN([C@@H]2COc3ccccc3[C@H]2Nc2ncnc3[nH]c(C(F)(F)F)cc23)C1 [EP-0041162] | 25.0 | 4.2 | < 4.60 |  |  |  |  |
| C[C@H]1CN([C@H]2COc3ccccc3[C@@H]2Nc2ncnc3[nH]c(C(F)(F)F)cc23)CCO1 [EP-0040979] | 25.0 | 4.0 | < 4.60 |  |  |  |  |
| COC1CN([C@H]2COc3cc(F)ccc3[C@@H]2Nc2ncnc3[nH]c(C(F)(F)F)cc23)C1 (single isomer, unassigned) [EP-0041089] | 25.0 | 10.2 | 5.71 |  |  |  |  |
| COC[C@@H]1CCN([C@H]2COc3ccccc3[C@@H]2Nc2ncnc3[nH]c(C(F)(F)F)cc23)C1 (single isomer, unassigned) [EP-0041072] | 25.0 | 8.0 |  | < 4.60 |  |  |  |
| C[C@@H]1CN([C@H]2COc3ccccc3[C@@H]2Nc2ncnc3[nH]c(C(F)(F)F)cc23)C[C@H](C)O1 [EP-0040942] | 25.0 | 4.7 | < 4.60 |  |  |  |  |
| C[S@](=N)(=O)C1CN([C@H]2COc3ccccc3[C@@H]2Nc2ncnc3[nH]c(C(F)(F)F)cc23)C1 (single isomer, unassigned) [EP-0041495] | 25.0 | 2.9 |  | 5.60 |  |  |  |
| Fc1ccc2c(c1)CC[C@H](N1C[C@H]3COC[C@H]3C1)[C@H]2Nc1ncnc2[nH]c(C(F)(F)F)cc12 (single isomer, unassigned) [EP-0040720] | 25.0 | 12.1 | 5.20 |  |  |  |  |
| COC[C@@H]1CCN(C2COc3ccccc3C2Nc2ncnc3[nH]c(C4CC4)cc23)C1 (single isomer, unassigned) [EP-0041515] | 25.0 | 5.6 |  | 5.30 |  |  |  |
| Fc1ccc2c(c1)OC[C@H](N1C[C@H]3COC[C@H]3C1)[C@H]2Nc1ncnc2[nH]c(C(F)(F)F)cc12 (single isomer, unassigned) [EP-0040268] | 25.0 | 3.2 | < 4.60 |  |  |  |  |
| FC1COCCC1[C@H]1COc2ccccc2[C@@H]1Nc1ncnc2[nH]c(C(F)(F)F)cc12 (single isomer, unassigned) [EP-0041322] | 25.0 | 11.0 |  | < 4.60 |  |  |  |
| CN1CCN([C@@H]2CCc3ccccc3[C@H]2Nc2ncnc3[nH]c(C(F)(F)F)cc23)CC1 (single isomer, unassigned) [EP-0040579] | 25.0 | 20.3 | 5.04 |  |  |  |  |
| COC[C@H]1CCCN1[C@H]1COc2ccccc2[C@@H]1Nc1ncnc2[nH]c(C(F)(F)F)cc12 (single isomer, unassigned) [EP-0041492] | 25.0 | 8.3 | 5.75 |  |  |  |  |
| FC(F)(F)c1cc2c(N[C@@H]3c4ccccc4OC[C@H]3C3CCCOC3)ncnc2[nH]1 (stereo partly drawn) [EP-0041003] | 25.0 | 5.3 | < 4.60 |  |  |  |  |
| OC[C@H]1CN([C@H]2COc3ccccc3[C@@H]2Nc2ncnc3[nH]c(C(F)(F)F)cc23)CCO1 (single isomer, unassigned) [EP-0041559] | 25.0 | 3.7 |  | 4.99 |  |  |  |
| FC(F)(F)c1cc2c(N[C@H]3c4ccccc4CC[C@H]3C3CCOCC3)ncnc2[nH]1 [EP-0040557] | 25.0 | 2.7 | < 4.60 |  |  |  |  |
| FC(F)(F)c1cc2c(N[C@@H]3c4ccccc4CC[C@@H]3C3CCOCC3)ncnc2[nH]1 [EP-0040558] | 25.0 | 3.0 | < 4.60 |  |  |  |  |

| SMILES | Highest safe dose (cytotoxicity; no FO; safe means DAPI+ <20%) (HeLa MKYP cells [1]; no FO) [µM] | Max % death with 1 μM FO (HeLa MKYP cells [1]) [%] | pEC50 (HeLa MKYP cells [2]; [3]) | pEC50 (HeLa MKYP cells [2]; [4]) | Max cell death at 25 μM compound, 1 uM FO (%) (HeLa MKYP cells [1]; 25 μM compound, 1 uM FO) | Cell death at 25 μM (no FO) (%) (HeLa MKYP cells [1]; 25 μM compound, no FO) | pEC50 (HeLa MKYP cells [2]; Homo sapiens, HeLa, HeLa mKeima assay, read-out: Mitophagy EC50 (HeLa mKeima assay)) |
| --- | --- | --- | --- | --- | --- | --- | --- |
| OC(C1CCOCC1)[C@H]1COc2ccccc2[C@@H]1Nc1ncnc2[nH]c(C(F)(F)F)cc12 (stereo partly drawn) [EP-0041135] | 25.0 | 15.7 | 5.82 |  |  |  |  |
| FC1COCCC1[C@H]1COc2ccccc2[C@@H]1Nc1ncnc2[nH]c(C(F)(F)F)cc12 (single isomer, unassigned) [EP-0041323] | 25.0 | 9.2 |  | 4.96 |  |  |  |
| C[C@@]12COC[C@]1(C)CN(C1CCc3ccccc3C1Nc1ncnc3[nH]c(C(F)(F)F)cc13)C2 (stereo partly drawn) [EP-0040523] | 25.0 | 39.0 | 5.56 |  |  |  |  |
| C[C@H]1CN([C@@H]2COc3ccccc3[C@H]2Nc2ncnc3[nH]c(C4CC4)cc23)CCO1 [EP-0041000] | 25.0 | 6.5 | 5.88 |  |  |  |  |
| C[C@@H]1CN([C@@H]2CCc3ccccc3[C@H]2Nc2ncnc3[nH]c(C(F)(F)F)cc23)C[C@H](C)O1 (single isomer, unassigned) [EP-0040494] | 25.0 | 4.1 | < 4.60 |  |  |  |  |
| FC(F)OC1CN([C@H]2COc3ccccc3[C@@H]2Nc2ncnc3[nH]c(C(F)(F)F)cc23)C1 (racemic) [EP-0041542] | 25.0 | 3.8 |  | < 4.60 |  |  |  |
| OC[C@@H]1CN([C@H]2COc3ccccc3[C@@H]2Nc2ncnc3[nH]c(C(F)(F)F)cc23)CCO1 (single isomer, unassigned) [EP-0041585] | 25.0 | 6.6 | 4.79 |  |  |  |  |
| C[C@@H]1COCCN1[C@H]1CCc2ccccc2[C@@H]1Nc1ncnc2[nH]c(C3CC3)cc12 (single isomer, unassigned) [EP-0040339] | 25.0 | 16.5 | < 4.60 |  |  |  |  |
| C[C@H]1CN([C@@H]2CCc3ccccc3[C@H]2Nc2ncnc3[nH]c(C4CC4)cc23)CCO1 (single isomer, unassigned) [EP-0040512] | 25.0 | 26.7 | 4.92 |  |  |  |  |
| FC(F)(F)c1cc2c(N[C@H]3c4ccccc4CC[C@@H]3OCC3CCOCC3)ncnc2[nH]1 (single isomer, unassigned) [EP-0038523] | 25.0 | 3.3 | 5.35 |  |  |  |  |
| CO[C@H]1CCN([C@@H]2COc3ccccc3[C@H]2Nc2ncnc3[nH]c(C(F)(F)F)cc23)C1 [EP-0041173] | 25.0 | 6.1 | 5.39 |  |  |  |  |
| Fc1ccc2c(c1)CC[C@@H](N1CCOCC1)[C@@H]2Nc1ncnc2[nH]c(C3CC3)cc12 [EP-0039747] | 25.0 | 24.4 | 5.03 |  | 24.4 | 12.9 | 5.03 |
| [2H]C([2H])([2H])OC1CN([C@@H]2COc3ccccc3[C@H]2Nc2ncnc3[nH]c(C(F)(F)F)cc23)C1 (racemic) [EP-0041327] | 25.0 | 4.1 | < 4.60 |  |  |  |  |
| FC(F)(F)c1cc2c(N[C@H]3c4ccccc4OC[C@@H]3C3CCOCC3)ncnc2[nH]1 (single isomer, unassigned) [EP-0040699] | 25.0 | 3.7 | < 4.60 |  |  |  |  |
| c1ccc2c(c1)OC[C@@H](C1CCOCC1)[C@H]2Nc1ncnc2[nH]c(C3CC3)cc12 [EP-0040730] | 25.0 | 8.3 | < 4.60 |  |  |  |  |
| C[S@](=N)(=O)C1CN([C@H]2COc3ccccc3[C@@H]2Nc2ncnc3[nH]c(C(F)(F)F)cc23)C1 (single isomer, unassigned) [EP-0041497] | 25.0 | 2.6 |  | 4.66 |  |  |  |

Source: US20240018146A1, “COMPOSITIONS AND METHODS OF USING THE SAME FOR TREATMENT OF NEURODEGENERATIVE AND MITOCHONDRIAL DISEASE” (MITOKININ, INC., priority 2020, published 2024)
